Test results taken from patent publication US20070037230A1 (priority 2005, published 2007).

Key:
Type in all cases: binding
[1] = system: Bacillus anthracis spores
[2] = system: biotinylated Bacillus anthracis spores
[3] = system: Bacillus anthracis spores; remark: listed apart in the source
Bacillus thuringiensis = system: Bacillus thuringiensis
Bacillus licheniformis = system: Bacillus licheniformis
Bacillus subtilis = system: Bacillus subtilis
Bacillus megaterium = system: Bacillus megaterium
Bacillus cereus = system: Bacillus cereus

| Sequence | binding of phage to spores in ELISA revealed with monoclonal antibody BD8 [1] | binding in the ELISA [2] | binding in the phage-capture assay (percentage recovery, eluted to input phage) [3] | bound to Bacillus anthracis fold better than to Bacillus thuringiensis (Bacillus thuringiensis) | bound to Bacillus anthracis fold better than to Bacillus licheniformis (Bacillus licheniformis) | bound to Bacillus anthracis fold better than to Bacillus subtilis (Bacillus subtilis) | bound to Bacillus anthracis fold better than to Bacillus megaterium (Bacillus megaterium) | bound to Bacillus anthracis fold better than to Bacillus cereus (Bacillus cereus) |
| --- | --- | --- | --- | --- | --- | --- | --- | --- |
| VTRNTSAS | specific binding | high binding | high binding | – | – | – | – | – |
| DARGTTHM | – | high binding | high binding | 2.1 fold | 50 fold | 25 fold | 75 fold | 3.7 fold |
| ETRVPHGA | – | high binding | – | 2.2 fold | 12 fold | 24 fold | 24 fold | 2.4 fold |
| DRTGATLT | – | – | high binding | – | – | – | – | – |
| EPRAPASL | – | – | high binding | – | – | – | – | – |
| EPRLSPHS | – | high binding | high binding | 6.9 fold | 70 fold | 39 fold | 43 fold | 3.5 fold |
